In patent US20100168067A1, “BIOMARKERS FOR BISPHOSPHONATE-RESPONSIVE BONE DISORDERS” (UCL BUSINESS PLC, priority 2006, published 2010):

Tested on: total hip mineralisation in subjects treated for OP
[1] = response by genotype TT vs TG/GG at rs2297480, annualised change in total hip densitometry, 95% CI in brackets

Protocol: Genetic samples were obtained from subjects enrolled in an ongoing clinical programme for treatment of OP through the use of regular intravenous Pamidronate (30 mg three monthly).
By such methodology, 53 subjects (each with two densitometric estimates taken in the first 24 month of Pamidronate therapy) were respectively assigned drug response phenotypes according to their display of ongoing demineralisation (‘response failure’) or stable or improving mineralising (‘response success’). This was achieved by comparison of derived annualised rates of change in projected densitometric estimates of total hip mineralisation.
DNA was extracted from blood samples using standard organic phase methods and PCR amplification and DNA sequencing was carried out using standard protocols (dye-terminator sequencing using an ABI3100 automated DNA sequencer).

## NCCC(O)(P(=O)(O)O)P(=O)(O)O [Pamidronate]
TT genotype at rs2297480, intravenous Pamidronate 30 mg three monthly, first 24 months, 53 subjects
  number of subjects with 'response failure' (ongoing demineralisation): 2
[1]
  odds ratio for the >-2.7 cutoff: 12.0833 (95% CI: 2.2961 to 63.5874)
  odds ratio for the pos/neg cutoff: 3.1818 (95% CI: 1.0192 to 9.9327)
